Article PMC10366102, “Dose escalation and expansion cohorts in patients with advanced breast cancer in a Phase I study of the CDK7-inhibitor samuraciclib” (Nature Communications, 2023)
“Also recorded” adds a separate entry of the source. Where two headings read alike, the source gives them in different places.

Tests used:
[1] = tested on: patients with advanced malignancies; assay: Safety pooled across study modules; assay type: in vivo
Description: These were summarized by Medical Dictionary for Regulatory
adverse events (SAEs) were analyzed and reported separately. Details of any deaths were listed. All
were listed individually by patient and summarized descriptively. For urinalysis parameters, any
positive. Abnormal physical examina tion findings were listed.

[2] = tested on: human peripheral blood lymphocytes; set-up: method as in ref IB; conditions: ref IB; cited from earlier work
hERG channel = tested on: hERG channel; set-up: method as in ref IB; conditions: whole-cell patch-clamp, HEK cells, ref IB, cited from earlier work
dog = tested on: dog; set-up: method as in ref IB; conditions: oral 5, 15, and 20 mg/kg, ref IB; cited from earlier work
pPolII = assay: Immunohistochemistry H-score in paired tumor biopsies, pPolII; assay type: in vivo, human
Description: Per-protocol ctDNA samples were taken in Module 1B-1 at screening, C1D1, C2D1 and on D1 of alternating cycles from Cycle 3; in Module 2A at screening, C1D1 and at either C2D1 (240 mg) or C2D15 (360 mg) for mutational analysis[24],[33], (Supplementary Information). pPolII in lymphocytes and pPolII and pCDK1/2/3 in core needle tissue samples from patients recruited to the paired biopsy cohort were evaluated for on-target pharmacodynamic analyses. […]
pharmacodynamic effects in tumor tissue. […]
variability in H-score was observed between sections. […]
H-scores for pre-dose and on-study biopsies and summary statistics for the observed H-score when stained for pCDK1/2/3 and pPolII are shown in Supplementary Table 11. Significance was calculated using Student’s one-tailed paired t-test, where the alternative hypothesis was that on-study samples had

[3] = Module 4 food effect study; assay type: in vivo, human
Description: Carrick Therapeutics CT7001_001, Volume 3, Module 1, Part B-1 (TNBC) […]
in a test using the whole-cell patch-clamp technique (human embryonic kidney [HEK] cells transfected with hERG), and the CT7001 IC50 in the K+ channel was determined to be greater […]
Cardiovascular toxicity potential was also studied in vivo in dogs. Oral administration of 5, 15, and 20 mg/kg CT7001 had no effect on haemodynamic parameters, ECG parameters, or body temperature in the dog, compared with control article (vehicle) administration.
Effects of CT7001 on the central nervous system (CNS [Irwin]) and respiratory systems were […]
CT7001 has low mutagenic potential. At concentrations up to the lower limit of toxicity, it induced no mutations in a five strains Ames test.
2.3.2 Current Clinical Data of CT7001
A first-in-human multi-module Phase I/II clinical study commenced in November 2017 […]
only clinical study conducted to date.
The single- and multiple-ascending dose Phase 1a part of the study (Module 1, Part A) is completed. 33 dosed patients have completed this part of Module 1 (120, 240, 480 mg and a step-down dose level of 360 mg, all taken once daily (OD), and 180 mg given twice a day (BID), all in a fasted state). […]
Module 4 evaluated the effect of food on CT7001 bioavailability in cancer patients. […]

CYP3A4 = tested on: CYP3A4; set-up: method as in ref IB; conditions: separate assay, ref IB, cited from earlier work
[4] = set-up: method as in ref IB; conditions: rat microsomes; ref IB; cited from earlier work
[5] = Module 1 (both parts) and Module 2A
[6] = as of 16 November 2020, 115 patients

SMILES: CC(C)c1cnn2c(NCc3ccccc3)cc(NC[C@H]3CCNC[C@@H]3O)nc12 [samuraciclib, Samuraciclib]
- Events of Grade 4 thrombocytopenia ([1]; 1 at 180mg BID and 1 at 360mg OD): 2 events
- Events of Grade 1 platelet count decreased ([1]; 1 at 240mg OD and 2 at 360mg): 3 events
- Patients with at least one AE considered related to samuraciclib ([1]; 96/98 patients, Modules 1A, 1B-1, 2A): 98.0%
- Events of neutropenia/white blood cell count decreased ([1]; Grade 1 at 360mg OD and 180mg BID): 2 events
- Deaths considered related to samuraciclib treatment [1, 5]: None
- Patients who died following an AE [1, 5]: 5 patients
- SAEs considered related to study treatment [1, 5]: 6
- Serious adverse events (not including deaths) [1, 5]: 27 patients
- Recovery of platelets after stopping samuraciclib ([1]; Module 1B-1 and Module 2A): ≤ 28 days
- Patients with diarrhoea, nausea and vomiting ([1]; across dose levels, largely Grade 1, as of 16 November 2020): more than 75%
- Events of anaemia [1, 6]: 16 events
- Events of increased ALT [1, 6]: 14 events
- Events of increased AST [1, 6]: 16 events
- Platelet related AEs [1, 6]: 13
- Events of Grade 1 thrombocytopenia ([1]; at 360mg OD): 4 events
- Events of Grade 2 platelet count decreased ([1]; at 360mg OD): 1 event
- Events of Grade 2 thrombocytopenia ([1]; at 360mg OD): 2 events
- Events of Grade 3 thrombocytopenia ([1]; at 360mg OD): 1 event
- Thrombocytopenia reported as Grade ≥4 ([1]; discussion): 3 patients
- Genotoxicity in micronucleus tests [2]: Low potential for genotoxicity
- Haemodynamic parameters, ECG parameters, body temperature (dog): no effect
- pPolII H-Score, On study, average (pPolII; Average 240mg OD patients, pre-dose 239): 208
- pPolII H-Score, On study, average (pPolII; Average 360mg OD patients, pre-dose 277): 271
- pPolII H-Score, On study, average (pPolII; Average all patients, pre-dose 258): 240
- pPolII H-Score, On study (pPolII; HR+ breast cancer, breast biopsy, 360 mg OD, pre-dose 286): 271
- pPolII H-Score, On study (pPolII; HR+ breast cancer, liver biopsy, 240 mg OD, pre-dose 243): 225
- pPolII H-Score, On study (pPolII; HR+ breast cancer, liver biopsy, 240 mg OD, pre-dose 251): 232
- pPolII H-Score, On study (pPolII; HR+ breast cancer, liver biopsy, 360 mg OD, pre-dose 271): 262
- pPolII H-Score, On study (pPolII; HR+ breast cancer, liver biopsy, 360 mg OD, pre-dose 273): 281
- pPolII H-Score, On study (pPolII; Rhabdomyosarcoma, axilla biopsy, 240 mg OD, pre-dose 223): 167
- pPolII in tumor tissue (pPolII; paired biopsy cohort): reduction of phosphorylated RNA polymerase II; also recorded: A reduction in pPolII was also seen in tumor tissue
- Food effect on exposure or % variability [3]: no food effect was seen
- Intrinsic clearance [4]: high
